# Reference: the supplement of paper PMC10307832
# What was measured:
# Experiment in all cases: relative viability (nuclei count vs DMSO), 5 days (fraction); higher = more cells survive
# 201T = tested on: 201T
# Method in brief: (§1)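 Values are medians from duplicate plates. Each reflects relative viability, defined as the nuclei count of treated wells over that of vehicle wells. Lung cancer cell lines in 1536-well plates were pin-tool dosed one day after seeding with one drug alone or with a fixed anchor-drug dose plus five library-drug doses (not always all listed) in √10 steps, then fixed, stained and imaged at 4× after 5 days.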
# A-427 = tested on: A-427
# Method in brief: as §1
# ABC-1 = tested on: ABC-1
# Method in brief: as §1
# BEN = tested on: BEN
# Method in brief: as §1
# CAL-12T = tested on: CAL-12T
# Method in brief: as §1
# H3255 = tested on: H3255
# Method in brief: as §1
# LC-2-ad = tested on: LC-2-ad
# Method in brief: as §1
# LCLC-97TM1 = tested on: LCLC-97TM1
# Method in brief: as §1
# NCI-H1650 = tested on: NCI-H1650
# Method in brief: as §1
# NCI-H1651 = tested on: NCI-H1651
# Method in brief: as §1
# NCI-H1792 = tested on: NCI-H1792
# Method in brief: as §1
# NCI-H1915 = tested on: NCI-H1915
# Method in brief: as §1
# NCI-H1944 = tested on: NCI-H1944
# Method in brief: as §1
# NCI-H2023 = tested on: NCI-H2023
# Method in brief: as §1
# NCI-H2087 = tested on: NCI-H2087
# Method in brief: as §1
# NCI-H441 = tested on: NCI-H441
# Method in brief: as §1
# NCI-H460 = tested on: NCI-H460
# Method in brief: as §1
# NCI-H520 = tested on: NCI-H520
# Method in brief: as §1
# NCI-H596 = tested on: NCI-H596
# Method in brief: as §1
# NCI-H650 = tested on: NCI-H650
# Method in brief: as §1
# NCI-H661 = tested on: NCI-H661
# Method in brief: as §1
# NCI-H727 = tested on: NCI-H727
# Method in brief: as §1
# PC-3 [JPC-3] = tested on: PC-3 [JPC-3]
# Method in brief: as §1
structure (smiles),measurement,setting,value
C=C1C(=O)O[C@@H](CCCCCCCC)[C@@H]1C(=O)O [C-75] + N=C(N)NC(=N)NCCc1ccccc1 [Phenformin] (partner 250 µM),relative viability,201T; first compound 0.08 µM,0.42
same,relative viability,201T; first compound 0.253 µM,0.484
same,relative viability,201T; first compound 0.8 µM,0.425
same,relative viability,201T; first compound 2.53 µM,0.43
same,relative viability,201T; first compound 8 µM,0.459
same,relative viability,A-427; first compound 0.08 µM,0.361
same,relative viability,A-427; first compound 0.253 µM,0.342
same,relative viability,A-427; first compound 0.8 µM,0.33
same,relative viability,A-427; first compound 2.53 µM,0.284
same,relative viability,A-427; first compound 8 µM,0.303
same,relative viability,ABC-1; first compound 0.08 µM,0.209
same,relative viability,ABC-1; first compound 0.253 µM,0.289
same,relative viability,ABC-1; first compound 0.8 µM,0.231
same,relative viability,ABC-1; first compound 2.53 µM,0.19
same,relative viability,ABC-1; first compound 8 µM,0.199
same,relative viability,BEN; first compound 0.08 µM,0.266
same,relative viability,BEN; first compound 0.253 µM,0.274
same,relative viability,BEN; first compound 0.8 µM,0.297
same,relative viability,BEN; first compound 8 µM,0.258
same,relative viability,CAL-12T; first compound 0.08 µM,0.545
same,relative viability,CAL-12T; first compound 0.253 µM,0.746
same,relative viability,CAL-12T; first compound 0.8 µM,0.567
same,relative viability,CAL-12T; first compound 2.53 µM,0.556
same,relative viability,CAL-12T; first compound 8 µM,0.515
same,relative viability,H3255; first compound 0.08 µM,0.345
same,relative viability,H3255; first compound 0.253 µM,0.352
same,relative viability,H3255; first compound 0.8 µM,0.392
same,relative viability,H3255; first compound 2.53 µM,0.337
same,relative viability,H3255; first compound 8 µM,0.331
same,relative viability,LC-2-ad; first compound 0.08 µM,0.561
same,relative viability,LC-2-ad; first compound 0.253 µM,0.566
same,relative viability,LC-2-ad; first compound 0.8 µM,0.544
same,relative viability,LC-2-ad; first compound 2.53 µM,0.483
same,relative viability,LC-2-ad; first compound 8 µM,0.54
same,relative viability,LCLC-97TM1; first compound 0.08 µM,0.421
same,relative viability,LCLC-97TM1; first compound 0.253 µM,0.487
same,relative viability,LCLC-97TM1; first compound 0.8 µM,0.355
same,relative viability,LCLC-97TM1; first compound 2.53 µM,0.372
same,relative viability,LCLC-97TM1; first compound 8 µM,0.431
same,relative viability,NCI-H1650; first compound 0.08 µM,0.47
same,relative viability,NCI-H1650; first compound 0.253 µM,0.502
same,relative viability,NCI-H1650; first compound 2.53 µM,0.448
same,relative viability,NCI-H1650; first compound 8 µM,0.491
same,relative viability,NCI-H1651; first compound 0.08 µM,0.35
same,relative viability,NCI-H1651; first compound 0.253 µM,0.315
same,relative viability,NCI-H1651; first compound 0.8 µM,0.354
same,relative viability,NCI-H1651; first compound 2.53 µM,0.306
same,relative viability,NCI-H1651; first compound 8 µM,0.291
same,relative viability,NCI-H1792; first compound 0.08 µM,0.236
same,relative viability,NCI-H1792; first compound 0.253 µM,0.216
same,relative viability,NCI-H1792; first compound 2.53 µM,0.113
same,relative viability,NCI-H1792; first compound 8 µM,0.206
same,relative viability,NCI-H1915; first compound 0.08 µM,0.361
same,relative viability,NCI-H1915; first compound 0.253 µM,0.375
same,relative viability,NCI-H1915; first compound 0.8 µM,0.368
same,relative viability,NCI-H1915; first compound 2.53 µM,0.318
same,relative viability,NCI-H1915; first compound 8 µM,0.325
same,relative viability,NCI-H1944; first compound 0.08 µM,0.21
same,relative viability,NCI-H1944; first compound 0.253 µM,0.163
same,relative viability,NCI-H1944; first compound 0.8 µM,0.179
same,relative viability,NCI-H1944; first compound 8 µM,0.187
same,relative viability,NCI-H2023; first compound 0.08 µM,0.394
same,relative viability,NCI-H2023; first compound 0.253 µM,0.502
same,relative viability,NCI-H2023; first compound 0.8 µM,0.367
same,relative viability,NCI-H2023; first compound 2.53 µM,0.384
same,relative viability,NCI-H2023; first compound 8 µM,0.372
same,relative viability,NCI-H2087; first compound 0.08 µM,0.409
same,relative viability,NCI-H2087; first compound 0.253 µM,0.597
same,relative viability,NCI-H2087; first compound 0.8 µM,0.428
same,relative viability,NCI-H2087; first compound 2.53 µM,0.279
same,relative viability,NCI-H2087; first compound 8 µM,0.48
same,relative viability,NCI-H441; first compound 0.08 µM,0.784
same,relative viability,NCI-H441; first compound 0.253 µM,0.725
same,relative viability,NCI-H441; first compound 0.8 µM,0.784
same,relative viability,NCI-H441; first compound 2.53 µM,0.672
same,relative viability,NCI-H441; first compound 8 µM,0.787
same,relative viability,NCI-H460; first compound 0.08 µM,0.511
same,relative viability,NCI-H460; first compound 0.253 µM,0.534
same,relative viability,NCI-H460; first compound 0.8 µM,0.501
same,relative viability,NCI-H460; first compound 8 µM,0.516
same,relative viability,NCI-H520; first compound 0.08 µM,0.539
same,relative viability,NCI-H520; first compound 0.253 µM,0.747
same,relative viability,NCI-H520; first compound 0.8 µM,0.464
same,relative viability,NCI-H520; first compound 2.53 µM,0.389
same,relative viability,NCI-H520; first compound 8 µM,0.482
same,relative viability,NCI-H596; first compound 0.08 µM,0.891
same,relative viability,NCI-H596; first compound 0.253 µM,0.766
same,relative viability,NCI-H596; first compound 0.8 µM,0.846
same,relative viability,NCI-H596; first compound 2.53 µM,0.513
same,relative viability,NCI-H596; first compound 8 µM,0.717
same,relative viability,NCI-H650; first compound 0.08 µM,0.474
same,relative viability,NCI-H650; first compound 0.253 µM,0.409
same,relative viability,NCI-H650; first compound 0.8 µM,0.371
same,relative viability,NCI-H650; first compound 2.53 µM,0.4
same,relative viability,NCI-H650; first compound 8 µM,0.41
same,relative viability,NCI-H661; first compound 0.08 µM,0.313
same,relative viability,NCI-H661; first compound 0.253 µM,0.271
same,relative viability,NCI-H661; first compound 0.8 µM,0.296
same,relative viability,NCI-H661; first compound 2.53 µM,0.237
same,relative viability,NCI-H661; first compound 8 µM,0.288
same,relative viability,NCI-H727; first compound 0.08 µM,0.62
same,relative viability,NCI-H727; first compound 0.253 µM,0.879
same,relative viability,NCI-H727; first compound 0.8 µM,0.537
same,relative viability,NCI-H727; first compound 8 µM,0.65
same,relative viability,PC-3 [JPC-3]; first compound 0.08 µM,0.457
same,relative viability,PC-3 [JPC-3]; first compound 0.253 µM,0.468
same,relative viability,PC-3 [JPC-3]; first compound 0.8 µM,0.47
same,relative viability,PC-3 [JPC-3]; first compound 2.53 µM,0.48
same,relative viability,PC-3 [JPC-3]; first compound 8 µM,0.503
